Here are results for one molecule from PMC7838189, “Natural podophyllotoxin analog 4DPG attenuates EMT and colorectal cancer progression via activation of checkpoint kinase 2” (Cell Death Discovery, 2021).

The subject of series [1] is Vimentin–p53 association in SW-620/5-FU-R cells. As to the kind of experiment: Immunoprecipitation of Vimentin and p53. Type of series: cell-based. To be noted: 300 nM, 48 h, vs ample p53 in vehicle. The method, then:
Fig. 3 Chk2-dependent role of 4DPG in modulating p53 and repressing Vimentin expression in 5-FU-R cells. A Immunocytochemistry results showing the Vimentin expression level in SW-620/5-FU-R cells treated/transfected with scramble, SiChk2, scramble plus 4DPG, SiChk2 plus 4DPG, vehicle, PV1019, 4DPG, and PV1019 plus 4DPG for 48 h. Scale bars: 50 µm. […] C Matrigel invasion assay results showing invaded HCT-116/5-FU-R and SW-620/5-FU-R cells following 48 h of transient transfection with GFP and GFP-Chk2 plasmid construct. Scale bars: 50 µm. D Quantification of the number of invaded cells per field from the above experimental conditions. n = 3, error bars, mean ± SD; *P < 0.05, ***P < 0.001. E Immunocytochemistry results displaying Vimentin expression levels in HCT-116/5-FU-R and SW-620/5-FU-R cells after 48 h of transient transfection with pCDNA3 and/or HA-Chk2 plasmid construct. Scale bars: 50 µm. F Immunoprecipitation with Vimentin or p53 followed by western blotting analysis of p53 in SW-620/5-FU-R cells treated with vehicle and/or 4DPG (300 nM) for 48 h. […]
For immunoprecipitation analysis, the previously described procedure was followed with minor modification. […] Following careful washing with lysis buffer, the immunoprecipitates were analyzed by western blotting.

A further series in a line: Solubility determination. The format is physicochemical. The method, then: (§1) Solubility and distribution coefficient are among the major physicochemical properties of a drug that greatly determine its absorption in physiological compartments. […] The distribution coefficient (logD, pH 7.4) of 4DPG was determined to be 0.815 ± 0.19, which indicates the slightly lipophilic nature of the molecule. For administration to animals, the appropriate quantity of 4DPG was formulated in the pre-calculated volume of saline with the help of a solubilizer (Tween-80). Next, to assess the hemocompatibility of 4DPG and establish if the compound could be considered safe for intravenous (i.v.) administration, we performed in vitro hemolysis assay by incubating the RBCs with increasing concentrations of the molecule.
(§2) The distribution coefficient, solubility, and hemocompatibility of 4DPG was determined adopting our previously described protocol[37],[40]. For hemolysis assay, increasing concentrations (5, 10, and 20 µg/mL) of 4DPG were employed. Distilled water (DW) and PBS were considered as […].

Series [2] in a line: Distribution coefficient determination. The format is physicochemical. To be noted: pH 7.4. The method, then:
as §1, §2

In another series the test system is RBCs. The series can be described thus: In vitro hemolysis assay. The settings on record: 20 µg/mL (highest tested concentration), 1 h incubation. Type of series: cell-based. On the procedure:
as §1, §2
Supplementary Figure S4. Hemocompatibility and exposure of 4DPG. (A) Representative images of RBC suspension incubated with distilled water (negative control), PBS (positive control), and increasing concentrations of 4DPG for 1 h. (B) Quantification of hemolysis in above treatment conditions by measuring the optical density at 540 nm. […]

In brackets after ≈: the same amount, converted by molar mass.

The solubility is the concentration that dissolves in the medium under given conditions. As for `COc1cc([C@@H]2c3cc4c(cc3C[C@H]3COC(=O)[C@@H]32)OCO4)cc(OC)c1O[C@@H]1O[C@H](CO)[C@@H](O)[C@H](O)[C@H]1O` [4DPG, 4′-demethyl-deoxypodophyllotoxin glucoside], the “p53 detected in Vimentin pull-down lysates” value in series [1] is listed as “negligible p53 expression”. The solubility in “Solubility determination” (simulated gastric fluid (SGF, pH 1.2)) is 539.38 ± 91 µg/mL (≈ 987 µM); in “Solubility determination” (simulated intestinal fluid (SIF, pH 6.8)) it was 712.92 ± 172 µg/mL (≈ 1300 µM). In addition, the “distribution coefficient (logD)” value in series [2] is listed as 0.815 ± 0.19. Besides, in the series with RBCs, the hemolysis was 5.8%.
